According to BindingDB's records for doi:10.1016/j.ejmech.2014.06.016 (Ocean University of China, 2014):

Experiment: Inhibition of p-glycoprotein in human MDA435/LCC6MDR cells assessed as concentration required to reduce taxol IC50 by half after 5 days by MTS assay

Row | EC50 | Structure (SMILES)
1 | 213 nM | CCN(CC)c1ccc(Cc2c(Cc3ccc(OC)c(OC)c3)nc(NC(=O)c3cc(OC)c(OC)c(OC)c3)n2C)cc1
2 | 211 nM | CCN(CC)c1ccc(Cc2c(Cc3ccc(OC)c(OC)c3)nc(N(C(=O)/C=C/c3cc(OC)c(OC)c(OC)c3)C(=O)/C=C/c3cc(OC)c(OC)c(OC)c3)n2C)cc1
